Assay results as given in US20240041796A1, “ANTI-INFLAMMATORY COMPOSITION COMPRISING N-BENZYL-N-METHYLDECAN-1-AMINE OR A DERIVATIVE THEREOF AS AN ACTIVE INGREDIENT” (PUSAN NATIONAL UNIVERSITY INDUSTRY-UNIVERSITY COOPERATION …, priority 2022, published 2024).

Legend:
THP-1 cell line = test: LPS-induced signaling pathway in THP-1 cells pretreated with FMJ-G0 derivatives; format: cell-based, human; conditions: pretreated 4 μM 1 hour, LPS 1 μg/mL 4 hours; FIG. 8B
Method: Thereafter, the THP-1 cell line was pretreated with the synthesized FMJ-G0 derivatives FMJ-G1, FMJ-G2, and FMJ-G3 at a concentration of 4 μM for 1 hour. Lipopolysaccharide (1 μg/mL) was added to a culture medium in which the THP-1 cell line was cultured for 4 hours. The same cell line was collected, and a signaling pathway involved in inflammatory cytokine synthesis was identified, and the result is shown in FIG. 8B.

Balb/C mice = test: DNCB-induced atopic dermatitis model, cosmetic cream applied to the skin; format: in vivo, mouse; conditions: for DNCB-induced atopic dermatitis (level of dermatitis): cosmetic cream (0.3% active; Lidomax ointment 0.15%) applied to the back for 2 weeks, FIG. 9A, 9C
Method: Wed added 0.3 g of olive wax to 2 mL of soybean oil (Sigma-Aldrich) in a glass tube (15 ml), and put the tube in a 75° C. water-bath, and performed a double boiling thereon to melt the olive wax for 30 minutes while vortexing the tube at 10 minute interval. Under the same conditions, 7.7 ml of purified water was put into a 75° C. water-bath and heated the same for 30 minutes. Next, 7.5 ml of purified water was poured into the tube containing the olive wax and the mixture was stirred well via vortexing. Then, […] (0.3%) of each of BMDA and derivatives thereof (FMJ-G0, FMJ-G4, FMJ-G1, FMJ-G2, FMJ-G3) as synthesized in Examples 1 and 3 were added to the mixture, followed by stirring. The reaction product was cooled in ice and prepared in the form of a cosmetic cream.
In order to induce atopic dermatitis using 5-week-old Balb/C mice, hair on the back of the mouse was removed therefrom, and after one day, a 0.5% solution in which DNCB (2,4-dinitrochlorobenzne) is mixed with acetone and olive oil (3:1) was prepared, and then was applied thereon for 3 consecutive days by 150 μL per each day. Thereafter, the solution of the same concentration was applied to the back area from which the hair was removed twice a week and this process continued for 2 weeks. Further, to alleviate atopic dermatitis induced in this way, the cosmetic cream containing each of BMDA (FMJ-G0) and the derivatives thereof (FMJ-G4, FMJ-G1, FMJ-G2, FMJ-G3) of the present disclosure as prepared above was applied to the back of rats with the induced atopic dermatitis for 2 weeks, and then, changes in skin inflammation were examined.
The experimental results of FIG. 10A and FIG. 10B was obtained as follows as in FIG. 9. The skin tissue was removed from the back of the mouse in the group, and was placed fixedly in 10% formaldehyde for 48 hours, and paraffin pieces were made, and the pieces were thinly sliced so as to have a thickness of 4 μm and was subjected to hematoxylin-esoin staining. Then, whether the damaged skin tissue was recovered by each of BMDA (FMJ-G0) and DMMA (FMJ-G4) was examined using an optical microscope equipped with a Leica application (Leica Microsystems, Switzerland).
To this end, the atopic dermatitis is induced in FIG. 9, and on 2 weeks since the treatment with BMDA (FMJ-G0) and DMMA (FMJ-G4), blood (500 ul) is collected from the hepatic veins of the rats of the above groups, and left at room temperature for 30 minutes. Then, serum was separated and prepared via centrifugation, and then, the IgE concentration related to the allergic reaction was measured through ELISA using the serum thus prepared.
Anti-mouse IgE (Pharmingen, CA, USA) was diluted with PBS (pH 7.4) on a 96-well plate, 100 μL thereof was coated on each 96-well plate, and then left at 4° C. for 12 hours. The plate was washed with PBS containing 0.05% tween. Blocking was performed thereon for 1 hour with PBS containing 1% BSA, 5% sucrose, and 0.05% NaN3. Washing was performed thereon several times using washing buffer. Recombinant IgE and serum were added thereto, and reaction occurred at 37° C. for 2 hours, and each well was washed again, and biotinylated IgE (Pharmingen, CA, USA) was added thereto. Reaction occurred for 2 hours. After washing the well, avidin peroxidase was added thereto and reaction occurred at 37° C. for 30 minutes. Then, the well was washed and then, ABTS solution as a substrate was added thereto. Absorbance was measured at 405 nm using ELISA reader (Epoch2, Biotek, VT, USA).
FIG. 11 show data obtained as follows. The atopic dermatitis was induced as described in FIG. 9, and on 2 weeks since the treatment with BMDA or DMMA (FMJ-G0/G4), a portion of the skin tissue of the rats in the groups were put in Trisol solution and the tissue was crushed in a sonicator. […]

[1] = cosmetic cream (Lidomax ointment 0.15%) applied for 2 weeks, FIG. 9B, 9D

CCCCCCCCCCN(CC)Cc1ccccc1 [FMJ-G1, Benzyl-decyl-ethyl-amine]
phosphorylation of JNK resulting from LPS (THP-1 cell line): inhibited | phosphorylation of MK2 resulting from LPS (THP-1 cell line): inhibited | phosphorylation of p38 MAP kinase resulting from LPS (THP-1 cell line): inhibited | DNCB-induced atopic dermatitis (level of dermatitis) (Balb/C mice): significantly alleviates

CCCCCCCCCCCCN(C)Cc1ccccc1 [FMJ-G2, benzyl-dodecyl-methyl-amine]
phosphorylation of JNK resulting from LPS (THP-1 cell line): inhibited | phosphorylation of MK2 resulting from LPS (THP-1 cell line): inhibited | phosphorylation of p38 MAP kinase resulting from LPS (THP-1 cell line): inhibited | DNCB-induced atopic dermatitis (level of dermatitis) (Balb/C mice): did not prevent | size of the (inguinal) lymph node (Balb/C mice; [1]): increased | size of the spleen (Balb/C mice; [1]): increased
